Data: ChEMBL document CHEMBL2034821, “Synthesis, hypoglycemic and hypolipidemic activities of novel thiazolidinedione derivatives containing thiazole/triazole/oxadiazole ring” (Eur J Med Chem, 2012)

Tests used:
Rattus norvegicus [1] = assay: Hypoglycemic activity in alloxan-induced diabetic Wistar rat model assessed as reduction in plasma glucose level at 3 mg/kg, po for 15 days measured on day 15; format: functional; parameters: scale not given: the % may be the effect or the level left
Rattus norvegicus [2] = assay: Hypoglycemic activity in alloxan-induced diabetic Wistar rat model assessed as reduction in plasma glucose level at 10 mg/kg, po for 15 days measured on day 15; format: functional; parameters: scale not given: the % may be the effect or the level left
Rattus norvegicus [3] = assay: Hypoglycemic activity in alloxan-induced diabetic Wistar rat model assessed as reduction in plasma glucose level at 30 mg/kg, po for 15 days measured on day 15; format: functional; parameters: scale not given: the % may be the effect or the level left
Rattus norvegicus [4] = assay: Hypoglycemic activity in alloxan-induced diabetic Wistar rat model assessed as reduction in plasma glucose level at 100 mg/kg, po for 15 days measured on day 15; format: functional; parameters: scale not given: the % may be the effect or the level left
Rattus norvegicus [5] = assay: Hypolipidemic activity in alloxan-induced diabetic Wistar rat model assessed as reduction in triglyceride level at 3 mg/kg, po for 15 days measured on day 15; format: functional; parameters: scale not given: the % may be the effect or the level left
Rattus norvegicus [6] = assay: Hypolipidemic activity in alloxan-induced diabetic Wistar rat model assessed as reduction in triglyceride level at 10 mg/kg, po for 15 days measured on day 15; format: functional; parameters: scale not given: the % may be the effect or the level left
Rattus norvegicus [7] = assay: Hypolipidemic activity in alloxan-induced diabetic Wistar rat model assessed as reduction in triglyceride level at 30 mg/kg, po for 15 days measured on day 15; format: functional; parameters: scale not given: the % may be the effect or the level left
Rattus norvegicus [8] = assay: Hypolipidemic activity in alloxan-induced diabetic Wistar rat model assessed as reduction in triglyceride level at 100 mg/kg, po for 15 days measured on day 15; format: functional; parameters: scale not given: the % may be the effect or the level left
Rattus norvegicus [9] = assay: Toxicity in Wistar rat at 3 to 100 mg/kg, po for 15 days; format: organism-based; parameters: dose 3-100 mg/kg, route oral; conditions: in vivo, 360 h

| SMILES | Activity (Rattus norvegicus [1]) | Activity (Rattus norvegicus [2]) | Activity (Rattus norvegicus [3]) | Activity (Rattus norvegicus [4]) | Activity (Rattus norvegicus [5]) | Activity (Rattus norvegicus [6]) | Activity (Rattus norvegicus [7]) | Activity (Rattus norvegicus [8]) | Activity (Rattus norvegicus [9]) |
| --- | --- | --- | --- | --- | --- | --- | --- | --- | --- |
| COc1ccc(-c2nnc(SCCOc3ccc(/C=C4\SC(=O)NC4=O)cc3)[nH]2)cc1 | 41.28% | 33.62% | 40.04% | 43.42% | 43.14% | 42.63% | 59.46% | 71.24% | Non-toxic |
| O=C1NC(=O)/C(=C/c2ccc(OCCSc3nnc(-c4ccccc4[N+](=O)[O-])[nH]3)cc2)S1 | 14.58% | 15.28% | 20.14% | 26.84% | 19.84% | 20.91% | 38.64% | 49.12% | Non-toxic |
| O=C1NC(=O)/C(=C/c2ccc(OCCSc3nnc(Cc4ccccc4)o3)cc2)S1 | 14.23% | 16.82% | 19.08% | 23.08% | 18.52% | 20.54% | 28.02% | 34.56% | Non-toxic |
| Cc1nc(COc2ccc(/C=C3\SC(=O)NC3=O)cc2)cs1 | 10.42% | 10.64% | 14.73% | 22.87% | 18.62% | 19.2% | 26.4% | 38.92% | Non-toxic |
| O=C1NC(=O)/C(=C/c2ccc(OCCSc3nnc(-c4ccc([N+](=O)[O-])cc4)[nH]3)cc2)S1 | 11.92% | 13.85% | 16.02% | 18.04% | 14.12% | 15.32% | 18.56% | 22.08% | Non-toxic |
| O=C1NC(=O)/C(=C/c2ccc(OCCSc3nnc(-c4cccnc4)o3)cc2)S1 | 24.35% | 33.16% | 39.34% | 50.09% | 40.66% | 45.1% | 60.78% | 72.32% | Non-toxic |
| O=C1NC(=O)/C(=C/c2ccc(OCCSc3nnc(-c4ccccc4)o3)cc2)S1 | 11.62% | 14.64% | 16.13% | 20.08% | 21.56% | 22.18% | 24.05% | 33.12% | Non-toxic |
| O=C1NC(=O)/C(=C/c2ccc(OCCSc3nnc(-c4ccccc4)[nH]3)cc2)S1 | 10.42% | 10.64% | 14.73% | 22.87% | 18.62% | 19.2% | 26.4% | 38.92% | Non-toxic |
| O=C1NC(=O)/C(=C/c2ccc(OCCSc3nnc(-c4ccncc4)o3)cc2)S1 | 23.46% | 32.62% | 40% | 43.42% | 40.15% | 42.17% | 58.48% | 69.72% | Non-toxic |
| O=C1NC(=O)/C(=C/c2ccc(OCCSc3nnc(-c4ccc(Br)cc4)[nH]3)cc2)S1 | 13.15% | 20.43% | 19.52% | 28.51% | 28.35% | 26.87% | 39.45% | 45.68% | Non-toxic |
| O=C1NC(=O)/C(=C/c2ccc(OCCSc3nnc(-c4ccc(Cl)cc4)[nH]3)cc2)S1 | 16.04% | 19.63% | 23.68% | 28.85% | 23.85% | 24.56% | 32.92% | 41.56% | Non-toxic |
| Cc1ccc(-c2nnc(SCCOc3ccc(/C=C4\SC(=O)NC4=O)cc3)[nH]2)cc1 | 16.87% | 20.36% | 22.64% | 29.73% | 25.24% | 21.69% | 40.26% | 53.96% | Non-toxic |
| CCc1ccc(CCOc2ccc(CC3SC(=O)NC3=O)cc2)nc1 (centres undefined) [PIOGLITAZONE] | 47.02% | 35.25% | 40.96% | 45.89% | 41.6% | 47.25% | 64.59% | 75.43% | – |
| O=C1NC(=O)/C(=C/c2ccc(OCCSc3nnc(Cc4ccccc4)[nH]3)cc2)S1 | 18.28% | 19.36% | 28.54% | 34.38% | 22.45% | 22.81% | 38.25% | 41.87% | Non-toxic |
| O=C1NC(=O)/C(=C/c2ccc(OCc3csc(-c4ccccc4)n3)cc2)S1 | 17.75% | 20.36% | 22.64% | 29.73% | 25.24% | 21.69% | 40.26% | 53.96% | Non-toxic |
